The source of these data is patent US20120046363A1, “DOCOSAHEXAENOIC ACID FOR THE TREATMENT OF HEART FAILURE” (University of Maryland, Baltimore, priority 2009, published 2012).

Series [1] is described as follows: Rat abdominal aortic constriction (banding) pressure overload model of HF. The series is classed as in vivo, male Wistar rats. The conditions noted are these: rats with aortic banding; ALA from flaxseed oil. The text has this:
A dose-response study was completed with EPA+DHA from fish oil using the rat abdominal aortic constriction pressure overload model of HF. In this model a permanent band is tied around the supra-renal abdominal aorta of male Wistar rats (˜200 g) by placing a blunt needle (20G) along the aorta and tying a 3-0 silk suture around both the aorta and the needle. The needle is removed, leaving the diameter of the aortic lumen determined by the diameter of the needle. The increase in aortic pressure results in progressive LV hypertrophy, mitochondrial dysfunction and decreased activity of mitochondrial enzymes, and LV dilation and contractile dysfunction and thus HF^2, 207-213.
Rats were subjected to abdominal aortic banding and assigned them to 12 wks of treatment with either a standard chow or chow supplemented with EPA+DHA from fish oil at either 0.7, 2.3 or 7% of the total energy intake, with an EPA/DHA ration at a 30/70 mix, respectively. These doses correspond to estimated human doses of 1.6, 5.1 and 15.6 g/day (calculated assuming an energy intake of 2000 kcals/day in humans, and 9 kcals/g of EPA+DHA), thus we spanned both sides of the FDA approved human dose of 3.4 g/day. […] There were no differences in body mass or heart rate among groups. LV mass was 37% greater in the banded rats compared to sham on the standard diet. […]

The conditions of series [2]: mammalian cells; cited from earlier work.
Series [3] has as its system VDAC2. Nature of the series: Western blot of isolated mitochondria, densitometry. The class given is in vivo, male Wistar rats. The conditions noted are these: CTRL 1.00 ± 0.15. As for the experimental part:
(§1) Metabolic and Biochemical Parameters: Free fatty acids and triglycerides were assessed in the plasma using commercially available kits (Wako, Richmond, Va.). Mitochondrial proteins were separated by electrophoresis in 4-12% NuPage gels, transferred onto a nitrocellulose membrane, and incubated with specific antibodies to cyclophilin D and voltage-dependent anion channel (VDAC) (1:10,000 and 1:5000, respectively, both from Mitosciences, Eugene, Oreg.). Fluorescence-conjugated secondary antibodies (IRDye 800, 1:10,000; LI-COR Bioscience) were used for incubation before the membranes were scanned with Odyssey® infrared imaging system (LI-COR Bioscience). The digitized image was analyzed with Odyssey® software.
For orientation: A western blot detects proteins with antibodies after separation by electrophoresis.

Series [4] deals with cyclophilin D. The description is as above. The series is classed as in vivo, male Wistar rats. The conditions noted are these: CTRL 1.00 ± 0.08. The method, then: as §1
Series [5] concerns VDAC1. The description is as above. The class given is in vivo, male Wistar rats. The conditions noted are these: CTRL 1.00 ± 0.13. The method, then: as §1
The subject of series [6] is mitochondrial permeability transition pore (MPTP). Nature of the series: Ca2+ retention capacity (index of MPTP opening) in mitochondria from diet-treated rats, Series 1. The class given is in vivo, male Wistar rats. The method, then:
(§2) Experimental Design: The animal protocol was conducted according to the Guideline for the Care and Use of Laboratory Animals (NIH publication 85-23) and was approved by the University of Maryland School of Medicine Institutional Animal Care and Use Committee. Investigators were blinded to treatment when measurements were performed. The animals were maintained on a reverse 12-h light-dark cycle and all procedures were performed in the fed state between 3 and 6 h from the start of the dark phase. Two series of experiments were performed. In the initial studies (Series 1) male Wistar rats weighing 190-200 g were fed a standard low fat diet (CTRL) or modified standard diet containing DHA or EPA at 2.5% of total caloric intake, which corresponds to a human intake of approximately 5.5 g/day (calculated assuming an energy intake of 2000 kcal/day and 9 kcal/g of fat). The rats were maintained on the diet for 8 weeks. Following dietary treatment, rats were anesthetized with isoflurane, blood was drawn, and the heart was harvested for biochemical analysis and mitochondrial isolation. Plasma from these animals was analyzed for free fatty acids and triglyceride levels, and cardiac mitochondria for respiration, Ca^2+ retention capacity (an index of MPTP opening), VDAC and cyclophilin D, and membrane phospholipid composition as described below. Following completion of Series 1, a second series of animal studies (Series 2) were performed to assess mitochondrial swelling using a light scattering assay, and the effects of different respiratory substrates on Ca^2+ retention capacity in mitochondria from control and DHA supplemented rats. Animals were treated for 10 weeks and were fed either CTRL or DHA (2.5% of total caloric intake).
(§3) Mitochondrial Preparation: Mitochondria were isolated as previously described^228. LV tissue (400-500 mg) was minced and homogenized in 1:10 cold modified Chappel-Perry buffer (100 mM KCl, 50 mM MOPS, 5 mM MgSO4, 1 mM ATP, 1 mM EGTA, 2 mg/ml BSA), and the homogenates were centrifuged at 500×g. Subsequent centrifugation allowed for separation and purification of the subsarcolemmal mitochondria. The concentration of mitochondrial protein was measured by the Lowry method using bovine serum albumin as a standard.

Series [7] can be described thus: Plasma free fatty acids and triglycerides after dietary supplementation (Series 1). The class given is in vivo, male Wistar rats. The conditions noted are these: 2.5% of caloric intake, 8 weeks, FIG. 7. The method, then: as §2, with “Following dietary treatment, rats were anesthetized with isoflurane, blood was drawn, and the heart was harvested for biochemical analysis and mitochondrial isolation.” left out, “Following completion of Series 1, a second series of animal studies (Series 2) were performed to assess mitochondrial swelling using a light scattering assay, and the effects of different respiratory substrates on Ca^2+ retention capacity in mitochondria from control and DHA supplemented rats. Animals were treated for 10 weeks and were fed either CTRL or DHA (2.5% of total caloric intake).” left out
Metabolic and Biochemical Parameters: Free fatty acids and triglycerides were assessed in the plasma using commercially available kits (Wako, Richmond, Va.). […] The digitized image was analyzed with Odyssey® software.

The subject of series [8] is isolated cardiac mitochondria. Nature of the series: Cardiac mitochondrial phospholipid fatty acid composition by gas chromatography. The class given is in vivo, male Wistar rats. The conditions noted are these: Series 1, 8 weeks diet, mean ± SEM. The method, then:
as §2, §3
(§4) Membrane Lipid Composition: Cardiac phospholipid fatty acid composition was assessed in a subset of animals from Series 1 (n=7-9/group) on isolated cardiac mitochondria homogenates by gas chromatography with a flame ionization detector according to a modification of the transesterification method as previously described^228. CL composition was assessed on isolated cardiac mitochondria by electrospray ionization mass spectrometry using 1,1′,2,2′-tetramyristoyl CL as an internal standard as previously described (n=9/group)^228,229, 230.

For series [9], the system named is isolated cardiac mitochondria. Put plainly: Mitochondrial respiration (oxygen consumption, Clark-type electrode). The series is classed as in vivo, male Wistar rats. The following applies: for P:O: measurements without oligomycin; for RCR: ratio of State 3 to State 4 rate with oligomycin. As for the experimental part: as §2, §3
Mitochondrial respiration: Mitochondrial oxygen consumption was measured using a Clark-type oxygen electrode (Qubit Systems, Ontario, Canada). Mitochondria (0.25 mg protein) were suspended in 0.5 ml solution consisting of 100 mM KCl, 50 mM MOPS, 5 mM KH2PO4, 1 mM EGTA, and 0.5 mg fatty acid-free bovine serum albumin, at pH 7.4 and 37° C. State 3 (ADP-stimulated) and state 4 (non-phosphorylating) respiration were measured with glutamate+malate (10 and 5 mM, respectively), pyruvate+malate (10 and 5 mM, respectively) and palmitoylcarnitine+malate (40 μM and 5 mM, respectively) to assess respiration through complex I-IV, while succinate+rotenone (10 mM and 7.5 μM, respectively), were used to assess respiration through complex II-IV of the ETC exclusively. State 4 respiration was also measured in the presence of oligomycin to inhibit the mitochondrial ATP synthase.

Series [10] relates to isolated cardiac mitochondria. Put plainly: Cardiac mitochondrial cardiolipin (CL) content and composition by electrospray ionization mass spectrometry. The class given is in vivo, male Wistar rats. As for the experimental part: as §2, with “Following completion of Series 1, a second series of animal studies (Series 2) were performed to assess mitochondrial swelling using a light scattering assay, and the effects of different respiratory substrates on Ca^2+ retention capacity in mitochondria from control and DHA supplemented rats. Animals were treated for 10 weeks and were fed either CTRL or DHA (2.5% of total caloric intake).” left out
Mitochondrial Preparation: Mitochondria were isolated as previously described^228. […] The concentration of mitochondrial protein was measured by the Lowry method using bovine serum albumin as a standard.
as §4

The conditions of series [11]: similar patient population to GISSI-HF; cited from earlier work.
In series [12] the target is T1, tumor necrosis factor (Homo sapiens, UniProt P01375).
T1 construct: host or cells: heart-failure patients
The conditions noted are these: direct cytokine blockade; cited from earlier work.

T1 sequence (P01375 77-233 limits assumed): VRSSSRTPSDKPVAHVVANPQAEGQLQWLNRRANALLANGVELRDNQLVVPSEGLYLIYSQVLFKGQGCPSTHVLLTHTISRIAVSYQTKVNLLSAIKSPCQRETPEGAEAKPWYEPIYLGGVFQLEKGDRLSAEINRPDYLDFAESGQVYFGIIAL

In the case of `CC/C=C\C/C=C\C/C=C\CCCCCCCC(=O)O` [ALA, α-linolenic acid], the “cardiomyocyte apoptosis with supplementation” value in series [1] is recorded as “less apoptosis”. Also, the “conversion of ALA to EPA” value in series [2] is reported as roughly 10%.

For the molecule `CC/C=C\C/C=C\C/C=C\C/C=C\C/C=C\CCCC(=O)O` [EPA, eicosapentanoic acid], the “VDAC 2 protein, densitometry” value in series [3] is listed as 0.94 ± 0.17. Moreover, the “Cyclophilin D protein, densitometry” value in [4] is listed as 1.00 ± 0.08. For the same molecule, in series [5], the “VDAC 1 protein, densitometry” value is 0.87 ± 0.16. In addition, the “Ca2+ required to elicit MPTP” value in series [6] (glutamate + malate, without CsA, CTRL 83.0±8.7) is listed as 80.8±4.9 nmol Ca^2+/mg mito prot. Moreover, in series [6] (mitochondria of diet group with addition of 100 nM CsA), the “Ca2+ required to elicit MPTP” value came to 130.6±12.8 nmol Ca^2+/mg mito prot. Moreover, in [7], the “plasma free fatty acid concentration compared to CTRL” value is reported as “lowered” and the “plasma triglyceride concentration compared to CTRL” value is listed as “lowered”. In series [8], the “Mitochondrial phospholipid C18:0” value is 19.8 ± 0.8 molar percent of total phospholipid fatty acid, the “Mitochondrial phospholipid C18:1n7” value was 4.2 ± 0.2 molar percent of total phospholipid fatty acid, the “Mitochondrial phospholipid C18:1n9” value was 11.8 ± 1.0 molar percent of total phospholipid fatty acid and the “Mitochondrial phospholipid C18:2n6” value was 22.4 ± 0.8 molar percent of total phospholipid fatty acid. Besides, the “Mitochondrial phospholipid Total ω-3 PUFA” value in [8] was 14.3 ± 0.3 molar percent of total phospholipid fatty acid. Moreover, in [8] (n = 7-8/group), the “Mitochondrial phospholipid C16:0” value is 10.8 ± 0.6 molar percent of total phospholipid fatty acid. For the same molecule, the “Mitochondrial phospholipid C16:1” value in series [8] (BQL = below the quantifiable limit (limit of detection = 0.41%)) is listed as 4.5 ± 1.8 molar percent of total phospholipid fatty acid. In addition, the “Mitochondrial phospholipid C20:3n6” value in series [8] (BQL in control) is listed as 1.1 ± 0.2 molar percent of total phospholipid fatty acid. The “Mitochondrial phospholipid C22:6n3” value in [8] (DHA) was 8.3 ± 0.2 molar percent of total phospholipid fatty acid. Besides, in [8] (EPA, BQL in control), the “Mitochondrial phospholipid C20:5n3” value is recorded as 6.0 ± 0.2 molar percent of total phospholipid fatty acid. Further, in [8] (arachidonic acid (ARA)), the “Mitochondrial phospholipid C20:4n6” value was 9.8 ± 0.8 molar percent of total phospholipid fatty acid. For the same molecule, in series [9] (Glutamate + Malate), the “State 4 (+ oligomycin) respiration” value is recorded as 19.1 ± 3.3 ng atoms O · mg^−1 · min^−1, the “State 4 (− oligomycin) respiration” value is 32.1 ± 4.8 ng atoms O · mg^−1 · min^−1, the “P:O” value is 2.76 ± 0.23 and the RCR was 7.0 ± 1.0. Also, the “State 3 respiration” value in series [9] (Glutamate + Malate, mean ± SEM) is recorded as 119.3 ± 13.4 ng atoms O · mg^−1 · min^−1. In addition, in [9] (Palmityl-carnitine + Malate), the “State 3 respiration” value is given as 243.7 ± 28.1 ng atoms O · mg^−1 · min^−1, the “State 4 (+ oligomycin) respiration” value is on record as 29.7 ± 3.8 ng atoms O · mg^−1 · min^−1, the “State 4 (− oligomycin) respiration” value was 59.4 ± 7.0 ng atoms O · mg^−1 · min^−1 and the “P:O” value amounted to 2.57 ± 0.14. The RCR in series [9] (Palmityl-carnitine + Malate) is reported as 9.5 ± 1.8. In series [9] (Pyruvate + Malate), the “State 3 respiration” value is given as 221.2 ± 31.0 ng atoms O · mg^−1 · min^−1, the “State 4 (+ oligomycin) respiration” value was 43.3 ± 5.2 ng atoms O · mg^−1 · min^−1, the “State 4 (− oligomycin) respiration” value is 63.5 ± 6.4 ng atoms O · mg^−1 · min^−1 and the “P:O” value is recorded as 2.44 ± 0.30. In addition, in [9] (Pyruvate + Malate), the RCR was 5.1 ± 0.3. In addition, in series [9] (Succinate + Rotenone), the “State 3 respiration” value is 307.2 ± 37.1 ng atoms O · mg^−1 · min^−1, the “State 4 (+ oligomycin) respiration” value is given as 80.3 ± 11.7 ng atoms O · mg^−1 · min^−1, the “State 4 (− oligomycin) respiration” value was 102.1 ± 11.5 ng atoms O · mg^−1 · min^−1 and the “P:O” value turned out to be 1.48 ± 0.08. For the same molecule, the RCR in series [9] (Succinate + Rotenone) came to 4.1 ± 0.5. For the same molecule, in [9] (pyruvate+malate, absence and presence of oligomycin, vs control, p<0.05), the “decrease of state 4 respiration” value is “no effect”. The “increase of RCR” value in [9] (pyruvate+malate, vs control, p<0.05) is recorded as “no effect”. In addition, the “total CL content” value in [10] (Series 1, 8 weeks diet, CTRL 10.7±0.8, DHA vs CTRL p<0.08) turned out to be 11.1±0.8 nmols/mg mito prot. Moreover, the “CL species containing one ARA and three linoleic acid moieties (ARA1L3CL)” value in [10] (Series 1, compared to CTRL, FIG. 9) is listed as “decrease”.

With `CC(C)c1nc(N(C)S(C)(=O)=O)nc(-c2ccc(F)cc2)c1/C=C/[C@@H](O)C[C@@H](O)CC(=O)O` [rosuvastatin], the “beneficial effect in HF patients” value in [11] is “no beneficial effect”.

Take ETANERCEPT: the “efficacy in HF patients” value in series [12] is “not effective”.
